Source: US12612389B2, “Benzofuran-based N-acylhydrazone derivative and pharmaceutical composition comprising same” (KOREA RESEARCH INSTITUTE OF BIOSCIENCE AND BIOTECHNOLOGY, priority 2019, dated 2026)

Key:
[1] = test system: SK-N-MC; experiment: Anti-proliferative activity in other cancer cell lines (MTT); format: cell-based; details: Homo sapiens, 96 h, Brain, 4 days
Protocol: (§1) HeLa cells (American Type Culture Collection: ATCC, USA), a human cervical cancer cell line, were seeded in a 96-well plate at 3×10^3 cells/well, and the cells were then treated with compounds of Examples or Comparative Example according to the present invention and grown for 2 days. Then, MTT (3-(4,5-dimethylthiazol-2-yl)-2,5-diphenyltetrazolium bromide) reagent was added at 10 μL/well. After 2 hours, absorbance was measured at “OD 450” and statistical values were obtained using Prism™6 program. The data shown in Table below are mean values of results obtained by repeating the analysis twice.
(§2) Specifically, various cancer cell lines were cultured in a microtiter plate (1-3×10^3 cells/well), treated with the compound of Example 4 according to the present invention, and cultured for 4 days. Cytotoxicity was tested by MTT assay in the same manner as in Experimental Example 1-1, and IC50 was obtained by a log-dose response curve. The data shown in Table below are mean values of results obtained by repeating the analysis three times.

[2] = test system: CCRF-CEM; experiment: as above; format: cell-based; details: Homo sapiens, 96 h, Peripheral blood, 4 days
Protocol: as §1, §2

[3] = test system: RPMI-8226; experiment: as above; format: cell-based; details: Homo sapiens, 96 h, Marrow (leukemia), 4 days
Protocol: as §1, §2

[4] = test system: PC3; experiment: as above; format: cell-based; details: Homo sapiens, PC-3, 96 h, Prostate, 4 days
Protocol: as §1, §2

[5] = test system: NCI-H1299; experiment: as above; format: cell-based; details: Homo sapiens, 96 h, Lung, 4 days
Protocol: as §1, §2

[6] = test system: SNB75; experiment: as above; format: cell-based; details: Homo sapiens, SNB-75, 96 h, CNS, 4 days
Protocol: as §1, §2

[7] = test system: HCT-15; experiment: as above; format: cell-based; details: Homo sapiens, 96 h, Colon, 4 days
Protocol: as §1, §2

[8] = test system: HCT 116; experiment: as above; format: cell-based; details: Homo sapiens, 96 h, Colon, 4 days
Protocol: as §1, §2

[9] = test system: NCI-H226; experiment: as above; format: cell-based; details: Homo sapiens, 96 h, Lung, 4 days
Protocol: as §1, §2

[10] = test system: 786-O; experiment: as above; format: cell-based; details: Homo sapiens, 786-0, 96 h, Kidney, 4 days
Protocol: as §1, §2

[11] = test system: MDA-MB-468; experiment: as above; format: cell-based; details: Homo sapiens, 96 h, Breast, 4 days
Protocol: as §1, §2

[12] = test system: K562; experiment: as above; format: cell-based; details: Homo sapiens, 96 h, Marrow (leukemia), 4 days
Protocol: as §1, §2

[13] = test system: HCC1954; experiment: as above; format: cell-based; details: Homo sapiens, 96 h, Breast, 4 days
Protocol: as §1, §2

[14] = test system: A431; experiment: as above; format: cell-based; details: Homo sapiens, A-431, 96 h, Skin, 4 days
Protocol: as §1, §2

[15] = test system: U-2-OS; experiment: as above; format: cell-based; details: Homo sapiens, U2OS, 96 h, Bone, 4 days
Protocol: as §1, §2

[16] = test system: SNU 484; experiment: as above; format: cell-based; details: 96 h, Stomach, 4 days
Protocol: as §1, §2

[17] = test system: MOLT4; experiment: as above; format: cell-based; details: Homo sapiens, MOLT-4, 96 h, Marrow (leukemia), 4 days
Protocol: as §1, §2

[18] = test system: MCF7; experiment: Anti-proliferative activity test in cancer cells exhibiting multidrug resistance (MTT), parent line; format: cell-based; details: Homo sapiens, 96 h, 4 days
Protocol: (§3) HeLa cells (American Type Culture Collection: ATCC, USA), a human cervical cancer cell line, were seeded in a 96-well plate at 3×10^3 cells/well, and the cells were then treated with compounds of Examples or Comparative Example according to the present invention and grown for 2 days. Then, MTT (3-(4,5-dimethylthiazol-2-yl)-2,5-diphenyltetrazolium bromide) reagent was added at 10 μL/well. […] The data shown in Table below are mean values of results obtained by repeating the analysis twice. Specifically, K562 and MCF7 (Bio Evaluation Center, Korea Research Institute of Bioscience and Biotechnology, Korea) and multidrug-resistant cell lines of each of these cell lines, i.e., K562/ADR and MCF7/ADR (Bio Evaluation Center, Korea Research Institute of Bioscience and Biotechnology, Korea), were cultured on microtiter plates (1-3×10^3 cells/well). […] The data shown in Table below are mean values of results obtained by repeating the analysis three times.

[19] = test system: K562; experiment: as above; format: cell-based; details: Homo sapiens, 96 h, 4 days
Protocol: as §3

[20] = parameters: species or system ICR mice; details: mouse, in vivo
Protocol: The experimental apparatus was constructed similarly to that used in the paper described by Reyes-Mendez et al. (2018), and was composed of a black acrylic fence (floor area of […] and wall height of 40 cm). The floor surface was divided into 25 squares each having a size of 10×10 cm. For this experiment, mice were placed on the center of the floor and spontaneous activities thereof were recorded for 7 minutes from the top. After the experiment, the experimental apparatus was thoroughly washed with 30% ethanol. Three observers, unaware whether the drug was treated or not, analyzed the first 5 minutes of recorded video to count the number of squares the mouse passed, and add up the time during which the mouse stayed without moving, and the number of times the mouse was groomed or shaken, and the like. Based on the contents analyzed above, the time during which the mouse stayed in the central zone, speed, and total moving distance were calculated. A case where the two-tailed probability value was less than 0.05 (p<0.05) was considered statistically significant.
No statistically significant experimental groups were found as results of open-field experiments in mice.

[21] = test system: HeLa CCL2 cells; experiment: In vitro invasion assay (trans well); format: cell-based, human; details: 10 nM, 50 nM, 100 nM, 250 nM, 16 hours, FIGS. 7A and 7B
Protocol: In addition, in order to confirm the efficacy of inhibiting cell migration again, an invasion assay was performed. A trans well chamber for a 24-well plate was prepared, and HeLa CCL2 cells at a density of 5×10^4 were put into the upper chamber, treated with 10 nM, 50 nM, 100 nM, and 250 nM of the compound of Example 4, and cultured. Then, after 16 hours, the migrated cells were identified and the number thereof was measured through cell staining.

[22] = test system: HeLa CCL2 cell line; experiment: Effect test on cell cycle progression (propidium iodine, FACS); format: cell-based, human
[23] = test system: HDF (human); experiment: Cytotoxicity in normal cells (MTT); format: cell-based; details: 96 h, Normal cell, 4 days

In the case of `CCOCCn1c(Cl)c(/C=N/NC(=O)c2cc3cc(C)ccc3o2)c2ccccc21` [Example 4, (E)-N′-[(2-chloro-1-(2-ethoxyethyl)-1H-indol-3-yl]methylene}-5-methylbenzofuran-2-carbohydrazide], the IC50 [1] is reported as 980 ± 110 nM, the IC50 [2] is reported as 340 ± 20 nM and the IC50 [3] is reported as 520 ± 130 nM. For the same compound, the IC50 [4] was 710 ± 180 nM, the IC50 [5] was 560 ± 150 nM and the IC50 [6] was 390 ± 30 nM. The IC50 [7] was 280 ± 70 nM, the IC50 [8] was 450 ± 220 nM and the IC50 [9] was 420 ± 60 nM. For the same compound, the IC50 [10] was 130 ± 50 nM, the IC50 [11] was 690 ± 30 nM and the IC50 [12] was 470 ± 12 nM. It also gave an IC50 [13] of 410 ± 50 nM, an IC50 [14] of 220 ± 17 nM and an IC50 [15] of 420 ± 60 nM. It also gave an IC50 [16] of 350 ± 70 nM, an IC50 [17] of 300 ± 10 nM and an IC50 [18] of 822 nM. The IC50 [19] was 350 nM, the “effect on behavior of mice in open field (time in center zone, speed, total moving distance)” value [20] was “did not affect the behavior of mice in all groups” and the “cancer metastasis inhibitory effect (migrated cells)” value [21] was “excellent cancer metastasis inhibitory effect”. The “number of cells in G2/M phase as a percentage” value ([22]; 0.2 μM, FACS) was 82.36%, the “cells stopped in the mitotic phase” value ([22]; 16 hours post treatment) was ≥ 80% and the “Effect (μM): concentration at which cells were collected in the mitotic phase” value ([22]; FACS) was 0.2 µM. The IC50 ([22]; Homo sapiens, as stated in text on Table 5) was 200 nM and the IC50 [23] was 27000 ± 7890 nM.
